PubChem BioAssay AID2060332 (Molecular Pharmacology Branch, DTP, NCI, 2025)

Tested on: LG0567-F671-PDC multi-cell spheroid viability
Assay: Anticancer human tumor LG0567-F671-PDC patient-derived lung adenocarcinoma cell line growth inhibition [IpAb]
Conditions: for IC50: curve of first compound; for viability, T/C: stronger effect = lower value; active means viability on the fitted dose curve at most 10% of control; inactive means the rest
Summary of the method: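 Combinations with ipatasertib or abemaciclib were tested on tumour spheroids holding HUVEC (25%) and MSC (15%) alongside 60% malignant cells. Top concentration was at or near clinical Cmax (10 microM if undefined), descending in half-log steps.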

[1] = second compound 0.1 µM, first compound 0.0316 µM
[2] = second compound 0.1 µM, first compound 0.1 µM
[3] = second compound 0.1 µM, first compound 0.316 µM
[4] = second compound 0.1 µM, first compound 1 µM
[5] = second compound 0.316 µM, first compound 0.0316 µM
[6] = second compound 0.316 µM, first compound 0.1 µM
[7] = second compound 0.316 µM, first compound 0.316 µM
[8] = second compound 0.316 µM, first compound 1 µM
[9] = second compound 1 µM, first compound 0.0316 µM
[10] = second compound 1 µM, first compound 0.1 µM
[11] = second compound 1 µM, first compound 0.316 µM
[12] = second compound 1 µM, first compound 1 µM
[13] = second compound 3.16 µM, first compound 0.0316 µM
[14] = second compound 3.16 µM, first compound 0.1 µM
[15] = second compound 3.16 µM, first compound 0.316 µM
[16] = second compound 3.16 µM, first compound 1 µM
[17] = second compound 10 µM, first compound 0.0316 µM
[18] = second compound 10 µM, first compound 0.1 µM
[19] = second compound 10 µM, first compound 0.316 µM
[20] = second compound 10 µM, first compound 1 µM
[21] = second compound 0.1 µM, first compound 3.16 µM
[22] = second compound 0.1 µM, first compound 10 µM
[23] = second compound 0.316 µM, first compound 3.16 µM
[24] = second compound 0.316 µM, first compound 10 µM
[25] = second compound 1 µM, first compound 3.16 µM
[26] = second compound 1 µM, first compound 10 µM
[27] = second compound 3.16 µM, first compound 3.16 µM
[28] = second compound 3.16 µM, first compound 10 µM
[29] = second compound 10 µM, first compound 3.16 µM
[30] = second compound 10 µM, first compound 10 µM
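Further: viability read after 7 days of drug exposure.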
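Wherever viability, T/C is given: 100% = DMSO vehicle control luminescence.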

CC(=O)c1c(C)c2cnc(Nc3ccc(N4CCNCC4)cn3)nc2n(C2CCCC2)c1=O + CC(C)NCC(C(=O)N1CCN(c2ncnc3c2C(C)CC3O)CC1)c1ccc(Cl)cc1
inactive: viability, T/C (second compound 0.1 µM, first compound 0.000949 µM) 89.3% | viability, T/C (second compound 0.1 µM, first compound 0.003 µM) 84.7% | viability, T/C (second compound 0.1 µM, first compound 0.00949 µM) 68.9% | viability, T/C (second compound 0.1 µM, first compound 0.03 µM) 69.5% | viability, T/C (second compound 0.1 µM, first compound 0.0949 µM) 67.7% | viability, T/C (second compound 0.1 µM, first compound 0.3 µM) 75.6% | viability, T/C (second compound 0.316 µM, first compound 0.000949 µM) 66.5% | viability, T/C (second compound 0.316 µM, first compound 0.003 µM) 71.5% | viability, T/C (second compound 0.316 µM, first compound 0.00949 µM) 69.7% | viability, T/C (second compound 0.316 µM, first compound 0.03 µM) 61.3% | viability, T/C (second compound 0.316 µM, first compound 0.0949 µM) 58.1% | viability, T/C (second compound 0.316 µM, first compound 0.3 µM) 62.5% | viability, T/C (second compound 1 µM, first compound 0.000949 µM) 76.3% | viability, T/C (second compound 1 µM, first compound 0.003 µM) 73.6% | viability, T/C (second compound 1 µM, first compound 0.00949 µM) 78.9% | viability, T/C (second compound 1 µM, first compound 0.03 µM) 66% | viability, T/C (second compound 1 µM, first compound 0.0949 µM) 63.1% | viability, T/C (second compound 1 µM, first compound 0.3 µM) 75.2% | viability, T/C (second compound 3.16 µM, first compound 0.000949 µM) 61.2% | viability, T/C (second compound 3.16 µM, first compound 0.003 µM) 80.1% | viability, T/C (second compound 3.16 µM, first compound 0.00949 µM) 74.2% | viability, T/C (second compound 3.16 µM, first compound 0.03 µM) 69.1% | viability, T/C (second compound 3.16 µM, first compound 0.0949 µM) 68.4% | viability, T/C (second compound 3.16 µM, first compound 0.3 µM) 69.2% | viability, T/C (second compound 10 µM, first compound 0.000949 µM) 71.7% | viability, T/C (second compound 10 µM, first compound 0.003 µM) 84.8% | viability, T/C (second compound 10 µM, first compound 0.00949 µM) 79.3% | viability, T/C (second compound 10 µM, first compound 0.03 µM) 59.6% | viability, T/C (second compound 10 µM, first compound 0.0949 µM) 60.3% | viability, T/C (second compound 10 µM, first compound 0.3 µM) 58.4%
> 300 nM: IC50 (second compound 0.1 µM) | IC50 (second compound 0.316 µM) | IC50 (second compound 1 µM) | IC50 (second compound 3.16 µM) | IC50 (second compound 10 µM)

COc1c(OCCCN2CCOCC2)ccc2c3n(c(=NC(=O)c4cnc(N)nc4)nc12)CCN3 + CC(C)NCC(C(=O)N1CCN(c2ncnc3c2C(C)CC3O)CC1)c1ccc(Cl)cc1
53.7 nM: IC50 (second compound 0.1 µM)
43.4 nM: IC50 (second compound 0.316 µM)
6.24 nM: IC50 (second compound 10 µM)
inactive: viability, T/C (second compound 0.1 µM, first compound 0.00316 µM) 99.6% | viability, T/C (second compound 0.1 µM, first compound 0.01 µM) 85.8% | viability, T/C [1] 54.7% | viability, T/C [2] 44% | viability, T/C [3] 32.2% | viability, T/C [4] 29.4% | viability, T/C (second compound 0.316 µM, first compound 0.00316 µM) 82.8% | viability, T/C (second compound 0.316 µM, first compound 0.01 µM) 75.8% | viability, T/C [5] 47.4% | viability, T/C [6] 42.6% | viability, T/C [7] 28.5% | viability, T/C [8] 19.9% | viability, T/C (second compound 1 µM, first compound 0.00316 µM) 72.7% | viability, T/C (second compound 1 µM, first compound 0.01 µM) 49.8% | viability, T/C [9] 41% | viability, T/C [10] 30% | viability, T/C [11] 30.5% | viability, T/C [12] 22.6% | viability, T/C (second compound 3.16 µM, first compound 0.00316 µM) 71.4% | viability, T/C (second compound 3.16 µM, first compound 0.01 µM) 58.5% | viability, T/C [13] 46.5% | viability, T/C [14] 34.5% | viability, T/C [15] 26.7% | viability, T/C [16] 18.4% | viability, T/C (second compound 10 µM, first compound 0.00316 µM) 57.3% | viability, T/C (second compound 10 µM, first compound 0.01 µM) 42.2% | viability, T/C [17] 39% | viability, T/C [18] 30.9% | viability, T/C [19] 18.9% | viability, T/C [20] 18.8%
11.8 nM: IC50 (second compound 1 µM)
22.4 nM: IC50 (second compound 3.16 µM)

Cc1nc(NC(=O)N2CCCC2C(N)=O)sc1-c1ccnc(C(C)(C)C(F)(F)F)c1 (stereo not given) + CC(C)NCC(C(=O)N1CCN(c2ncnc3c2C(C)CC3O)CC1)c1ccc(Cl)cc1
924 nM: IC50 (second compound 0.316 µM)
5190 nM: IC50 (second compound 0.1 µM)
341 nM: IC50 (second compound 3.16 µM)
257 nM: IC50 (second compound 1 µM)
< 31.6 nM: IC50 (second compound 10 µM)
inactive: viability, T/C [1] 85.3% | viability, T/C [2] 86.2% | viability, T/C [3] 71% | viability, T/C [4] 42.8% | viability, T/C [21] 72% | viability, T/C [22] 39.7% | viability, T/C [5] 63.8% | viability, T/C [6] 72% | viability, T/C [7] 44.2% | viability, T/C [8] 56.8% | viability, T/C [23] 40.2% | viability, T/C [24] 35.9% | viability, T/C [9] 66.1% | viability, T/C [10] 68.2% | viability, T/C [11] 46.2% | viability, T/C [12] 34.2% | viability, T/C [25] 35.6% | viability, T/C [26] 29.8% | viability, T/C [13] 56% | viability, T/C [14] 50.9% | viability, T/C [15] 48.7% | viability, T/C [16] 44.5% | viability, T/C [27] 41.1% | viability, T/C [28] 21.4% | viability, T/C [17] 50.5% | viability, T/C [18] 53.1% | viability, T/C [19] 38.6% | viability, T/C [20] 46.2% | viability, T/C [29] 37.8% | viability, T/C [30] 25.8%

Cn1nccc1Nc1nccc(-c2ccn(C(CO)c3ccc(Cl)c(F)c3)c(=O)c2)n1 (stereo not given) + CC(C)NCC(C(=O)N1CCN(c2ncnc3c2C(C)CC3O)CC1)c1ccc(Cl)cc1
152 nM: IC50 (second compound 1 µM)
128 nM: IC50 (second compound 0.1 µM)
160 nM: IC50 (second compound 3.16 µM)
inactive: viability, T/C [1] 60.9% | viability, T/C [2] 51.7% | viability, T/C [3] 44.4% | viability, T/C [4] 34.2% | viability, T/C [21] 29.1% | viability, T/C [22] 23.9% | viability, T/C [5] 62.1% | viability, T/C [6] 45.6% | viability, T/C [7] 36.7% | viability, T/C [8] 32.7% | viability, T/C [23] 26% | viability, T/C [24] 21.3% | viability, T/C [9] 62.4% | viability, T/C [10] 52.9% | viability, T/C [11] 43.8% | viability, T/C [12] 25.9% | viability, T/C [25] 20.2% | viability, T/C [26] 15.9% | viability, T/C [13] 67.2% | viability, T/C [14] 58% | viability, T/C [15] 38.6% | viability, T/C [16] 31.7% | viability, T/C [27] 19.3% | viability, T/C [28] 9.79% | viability, T/C [17] 60.1% | viability, T/C [18] 57.4% | viability, T/C [19] 44.8% | viability, T/C [20] 27.2% | viability, T/C [29] 16.7% | viability, T/C [30] 9.92%
192 nM: IC50 (second compound 10 µM)
79.9 nM: IC50 (second compound 0.316 µM)
